Laboratory results reported in ChEMBL document CHEMBL4680222, “Sensitive fluorogenic substrates for sirtuin deacylase inhibitor discovery” (Eur J Med Chem, 2020).
Values belong to the compound of their own block, whether it stands above or below them.

Key:
[1] = molecular target: T1, NAD-dependent protein deacylase sirtuin-5, mitochondrial (Homo sapiens, UniProt Q9NXA8); assay: Inhibition of human N-terminal His-tagged SIRT5 (34 to 302 residues) expressed in Escherichia coli using Ac-Tyr-Lys-Leu-Lys(Ac)-AMC as substrate preincubated for 10 mins followed by substrate addition and measured after 30 mins in presence of NAD+ by fluorescence assay
T1 sequence (Q9NXA8 whole entry, the tested form may be a part): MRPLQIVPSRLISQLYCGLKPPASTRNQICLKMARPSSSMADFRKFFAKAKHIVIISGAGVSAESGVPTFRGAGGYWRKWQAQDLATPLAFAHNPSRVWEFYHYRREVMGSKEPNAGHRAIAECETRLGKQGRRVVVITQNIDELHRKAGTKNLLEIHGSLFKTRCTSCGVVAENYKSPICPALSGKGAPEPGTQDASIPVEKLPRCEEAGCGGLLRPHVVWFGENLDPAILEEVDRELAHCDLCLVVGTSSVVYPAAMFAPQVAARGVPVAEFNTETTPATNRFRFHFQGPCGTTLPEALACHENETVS

[2] = molecular target: T1, NAD-dependent protein deacylase sirtuin-5, mitochondrial; assay: Inhibition of human N-terminal His-tagged SIRT5 (34 to 302 residues) expressed in Escherichia coli using Ac-Leu-Gly-Ser-Lys(Su)-AMC as substrate preincubated for 10 mins followed by substrate addition and measured after 30 mins in presence of NAD+ by fluorescence assay
[3] = molecular target: T2, NAD-dependent protein deacetylase sirtuin-1 (Homo sapiens, UniProt Q96EB6); assay: Inhibition of human N-terminal His-tagged SIRT1 (183 to 664 residues) expressed in Escherichia coli using Ac-Arg-Leu-Ile-Lys(Ac)-AMC as substrate preincubated for 10 mins followed by substrate addition and measured after 30 mins in presence of NAD+ by fluorescence assay
T2 sequence (Q96EB6 whole entry): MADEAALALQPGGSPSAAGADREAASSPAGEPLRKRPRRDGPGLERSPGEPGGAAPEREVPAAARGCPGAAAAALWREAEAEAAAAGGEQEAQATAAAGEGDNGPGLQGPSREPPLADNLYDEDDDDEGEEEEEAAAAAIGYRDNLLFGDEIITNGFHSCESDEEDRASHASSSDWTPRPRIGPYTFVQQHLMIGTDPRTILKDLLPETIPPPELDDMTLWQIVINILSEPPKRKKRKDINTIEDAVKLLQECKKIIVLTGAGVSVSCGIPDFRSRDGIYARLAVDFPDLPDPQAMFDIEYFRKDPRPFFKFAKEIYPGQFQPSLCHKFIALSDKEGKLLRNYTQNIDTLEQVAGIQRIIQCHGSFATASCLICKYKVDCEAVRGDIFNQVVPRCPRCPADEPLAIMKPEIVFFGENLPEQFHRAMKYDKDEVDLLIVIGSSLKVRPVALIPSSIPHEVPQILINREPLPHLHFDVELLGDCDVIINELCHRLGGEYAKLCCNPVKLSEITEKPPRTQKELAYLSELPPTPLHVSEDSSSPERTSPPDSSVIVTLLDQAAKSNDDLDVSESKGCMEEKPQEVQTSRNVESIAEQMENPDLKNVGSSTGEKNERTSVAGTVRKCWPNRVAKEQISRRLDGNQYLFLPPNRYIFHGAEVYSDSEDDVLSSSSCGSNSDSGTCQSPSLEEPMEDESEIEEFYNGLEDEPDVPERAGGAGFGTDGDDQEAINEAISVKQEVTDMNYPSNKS

[4] = molecular target: T2, NAD-dependent protein deacetylase sirtuin-1; assay: Inhibition of human N-terminal His-tagged SIRT1 (183 to 664 residues) expressed in Escherichia coli using Ac-Tyr-Lys-Leu-Lys(Ac)-AMC as substrate preincubated for 10 mins followed by substrate addition and measured after 30 mins in presence of NAD+ by fluorescence assay
[5] = molecular target: T3, NAD-dependent protein deacetylase sirtuin-2 (Homo sapiens, UniProt Q8IXJ6); assay: Inhibition of human N-terminal His-tagged SIRT2 (56 to 356 residues) expressed in Escherichia coli using Ac-Arg-Leu-Ile-Lys(Ac)-AMC as substrate preincubated for 10 mins followed by substrate addition and measured after 30 mins in presence of NAD+ by fluorescence assay
T3 sequence (Q8IXJ6 whole entry): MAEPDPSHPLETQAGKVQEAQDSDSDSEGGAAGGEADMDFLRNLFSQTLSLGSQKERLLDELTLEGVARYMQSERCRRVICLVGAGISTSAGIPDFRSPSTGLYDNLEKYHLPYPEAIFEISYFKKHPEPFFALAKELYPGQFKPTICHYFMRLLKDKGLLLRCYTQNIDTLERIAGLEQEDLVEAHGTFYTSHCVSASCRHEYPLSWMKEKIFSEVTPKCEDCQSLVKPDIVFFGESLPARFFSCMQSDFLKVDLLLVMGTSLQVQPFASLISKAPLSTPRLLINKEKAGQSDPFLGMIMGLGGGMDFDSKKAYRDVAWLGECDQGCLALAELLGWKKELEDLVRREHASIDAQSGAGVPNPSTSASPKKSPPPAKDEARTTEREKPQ

[6] = molecular target: T3, NAD-dependent protein deacetylase sirtuin-2; assay: Inhibition of human N-terminal His-tagged SIRT2 (56 to 356 residues) expressed in Escherichia coli using Ac-Ser-Ser-Ile-Lys(De)-AMC as substrate preincubated for 10 mins followed by substrate addition and measured after 30 mins in presence of NAD+ by fluorescence assay
[7] = molecular target: T1, NAD-dependent protein deacylase sirtuin-5, mitochondrial; assay: Inhibition of human N-terminal His-tagged SIRT5 (34 to 302 residues) expressed in Escherichia coli using Ac-His-Phe-Ser-Lys(Su)-AMC as substrate preincubated for 10 mins followed by substrate addition and measured after 30 mins in presence of NAD+ by fluorescence assay

IC50 [1]: > 200 µM
IC50 [2]: > 200 µM
Compound: NC(=O)C1CCCc2c1[nH]c1ccc(Cl)cc21 (centres undefined)

IC50 [3]: 261 µM
IC50 [4]: 146 µM
Compound: c1cncc(-c2c[nH]nn2)c1

IC50 [5]: 2.2 µM
IC50 [6]: 23.3 µM
Compound: Cc1ccc(C(=O)Nc2ccc(S(=O)(=O)O)c3cc(S(=O)(=O)O)cc(S(=O)(=O)O)c23)cc1NC(=O)c1cccc(NC(=O)Nc2cccc(C(=O)Nc3cc(C(=O)Nc4ccc(S(=O)(=O)O)c5cc(S(=O)(=O)O)cc(S(=O)(=O)O)c45)ccc3C)c2)c1 [SURAMIN]

IC50 [1]: 21.9 µM
IC50 [2]: 6.1 µM
IC50 [7]: 6.6 µM
Compound: CC(C)c1ccccc1Cc1cc(C(=O)Nc2ccc(S(=O)(=O)c3ccccc3C(C)(C)C)cc2)c(O)c(O)c1O
